Legend:
Experiment in all cases: Test C greenhouse herbicide test, pre- and postemergence
Assay type in all cases: in vivo
[1] = test system: barnyardgrass (Echinochloa crus-galli)
In short: (§1)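 Visual 0–100 injury score (100 = complete control) taken against untreated controls after 13–15 d in greenhouse. Test chemicals, formulated in solvent plus surfactant, applied preemergence to seeds in loam–sand soil or postemergence to 1- to 4-leaf plants (2–18 cm).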

[2] = test system: blackgrass (Alopecurus myosuroides)
In short: as §1

corn (Zea mays) = test system: corn (Zea mays)
In short: as §1

[3] = test system: crabgrass, large (large crabgrass, Digitaria sanguinalis)
In short: as §1

[4] = test system: foxtail, giant (giant foxtail, Setaria faberii)
In short: as §1

[5] = test system: galium (catchweed bedstraw, Galium aparine)
In short: as §1

[6] = test system: lambsquarters (Chenopodium album)
In short: as §1

[7] = test system: nutsedge, yellow (yellow nutsedge, Cyperus esculentus)
In short: as §1

[8] = test system: oilseed rape (Brassica napus)
In short: as §1

[9] = test system: pigweed (Amaranthus retroflexus)
In short: as §1

[10] = test system: ragweed (common ragweed, Ambrosia elatior)
In short: as §1

[11] = test system: ryegrass, Italian (Italian ryegrass, Lolium multiflorum)
In short: as §1

soybean (Glycine max) = test system: soybean (Glycine max)
In short: as §1

[12] = test system: velvetleaf (Abutilon theophrasti)
In short: as §1

[13] = test system: wheat (winter wheat, Triticum aestivum)
In short: as §1

[14] = Postemergence, 31 g ai/ha, 0 to 100 scale (0 no effect, 100 complete control)
[15] = Postemergence, 125 g ai/ha, scale 0 to 100, 0 is no effect, 100 is complete control
[16] = Postemergence, 250 g ai/ha, scale 0 to 100, 0 no effect, 100 complete control, 13 to 15 d
[17] = Preemergence, 31 g ai/ha, scale 0 to 100, 0 is no effect, 100 is complete control
[18] = Preemergence, 62 g ai/ha, scale 0 to 100, 0 is no effect, 100 is complete control
[19] = Preemergence, 125 g ai/ha, scale 0 to 100, 0 is no effect, 100 is complete control
[20] = Preemergence, 250 g ai/ha, scale 0 to 100, 0 no effect, 100 complete control
[21] = postemergence, 62 g ai/ha, scale 0 to 100, 0 no effect, 100 complete control

Cc1ccc2ccccc2c1-c1c(O)c(I)nn(C)c1=O [Compound 29]
Barnyardgrass plant response rating [1, 14]: 15 | Plant response rating, Barnyardgrass [1, 15]: 40 | Plant response rating, Barnyardgrass [1, 16]: 40 | Plant response rating, Barnyardgrass [1, 17]: 10 | Plant response rating, Barnyardgrass [1, 18]: 35 | Plant response rating, Barnyardgrass [1, 19]: 80 | Barnyardgrass plant response rating [1, 20]: 90 | Barnyardgrass plant response rating [1, 21]: 25 | Blackgrass plant response rating [2, 14]: 40 | Plant response rating, Blackgrass [2, 15]: 60 | Plant response rating, Blackgrass [2, 16]: 75 | Plant response rating, Blackgrass [2, 17]: 50 | Plant response rating, Blackgrass [2, 18]: 50 | Plant response rating, Blackgrass [2, 19]: 85 | Blackgrass plant response rating [2, 20]: 85 | Blackgrass plant response rating [2, 21]: 50 | Corn plant response rating (corn (Zea mays); [14]): 0 | Plant response rating, Corn (corn (Zea mays); [15]): 30 | Plant response rating, Corn (corn (Zea mays); [16]): 20 | Plant response rating, Corn (corn (Zea mays); [17]): 0 | Plant response rating, Corn (corn (Zea mays); [18]): 0 | Plant response rating, Corn (corn (Zea mays); [19]): 0 | Corn plant response rating (corn (Zea mays); [20]): 45 | Corn plant response rating (corn (Zea mays); [21]): 10 | Crabgrass, Large plant response rating [3, 14]: 10 | Plant response rating, Crabgrass, Large [3, 15]: 50 | Plant response rating, Crabgrass, Large [3, 16]: 40 | Plant response rating, Crabgrass, Large [3, 17]: 5 | Plant response rating, Crabgrass, Large [3, 18]: 5 | Plant response rating, Crabgrass, Large [3, 19]: 55 | Crabgrass, Large plant response rating [3, 20]: 90 | Crabgrass, Large plant response rating [3, 21]: 20 | Foxtail, Giant plant response rating [4, 14]: 30 | Plant response rating, Foxtail, Giant [4, 15]: 60 | Plant response rating, Foxtail, Giant [4, 16]: 80 | Plant response rating, Foxtail, Giant [4, 17]: 75 | Plant response rating, Foxtail, Giant [4, 18]: 75 | Plant response rating, Foxtail, Giant [4, 19]: 90 | Foxtail, Giant plant response rating [4, 20]: 95 | Foxtail, Giant plant response rating [4, 21]: 35 | Galium plant response rating [5, 14]: 90 | Plant response rating, Galium [5, 15]: 100 | Plant response rating, Galium [5, 16]: 100 | Plant response rating, Galium [5, 17]: 95 | Plant response rating, Galium [5, 18]: 95 | Plant response rating, Galium [5, 19]: 98 | Galium plant response rating [5, 20]: 98 | Galium plant response rating [5, 21]: 95 | Lambsquarters plant response rating [6, 14]: 80 | Plant response rating, Lambsquarters [6, 15]: 85 | Plant response rating, Lambsquarters [6, 16]: 90 | Plant response rating, Lambsquarters [6, 17]: 75 | Plant response rating, Lambsquarters [6, 18]: 80 | Plant response rating, Lambsquarters [6, 19]: 80 | Lambsquarters plant response rating [6, 20]: 90 | Lambsquarters plant response rating [6, 21]: 85 | Nutsedge, Yellow plant response rating [7, 14]: 25 | Plant response rating, Nutsedge, Yellow [7, 16]: 75 | Plant response rating, Nutsedge, Yellow [7, 17]: 15 | Plant response rating, Nutsedge, Yellow [7, 18]: 80 | Plant response rating, Nutsedge, Yellow [7, 19]: 85 | Nutsedge, Yellow plant response rating [7, 20]: 85 | Nutsedge, Yellow plant response rating [7, 21]: 35 | Oilseed Rape plant response rating [8, 14]: 0 | Plant response rating, Oilseed Rape [8, 15]: 5 | Plant response rating, Oilseed Rape [8, 16]: 0 | Plant response rating, Oilseed Rape [8, 17]: 0 | Plant response rating, Oilseed Rape [8, 18]: 0 | Plant response rating, Oilseed Rape [8, 19]: 5 | Oilseed Rape plant response rating [8, 20]: 70 | Oilseed Rape plant response rating [8, 21]: 0 | Pigweed plant response rating [9, 14]: 95 | Plant response rating, Pigweed [9, 15]: 98 | Plant response rating, Pigweed [9, 16]: 98 | Plant response rating, Pigweed [9, 17]: 100 | Plant response rating, Pigweed [9, 18]: 100 | Plant response rating, Pigweed [9, 19]: 100 | Pigweed plant response rating [9, 20]: 100 | Pigweed plant response rating [9, 21]: 95 | Ragweed plant response rating [10, 14]: 80 | Plant response rating, Ragweed [10, 15]: 95 | Plant response rating, Ragweed [10, 16]: 95 | Plant response rating, Ragweed [10, 17]: 80 | Plant response rating, Ragweed [10, 18]: 85 | Plant response rating, Ragweed [10, 19]: 85 | Ragweed plant response rating [10, 20]: 90 | Ragweed plant response rating [10, 21]: 90 | Ryegrass, Italian plant response rating [11, 14]: 70 | Plant response rating, Ryegrass, Italian [11, 15]: 85 | Plant response rating, Ryegrass, Italian [11, 16]: 95 | Plant response rating, Ryegrass, Italian [11, 17]: 90 | Plant response rating, Ryegrass, Italian [11, 18]: 90 | Plant response rating, Ryegrass, Italian [11, 19]: 90 | Ryegrass, Italian plant response rating [11, 20]: 90 | Ryegrass, Italian plant response rating [11, 21]: 80 | Soybean plant response rating (soybean (Glycine max); [14]): 0 | Plant response rating, Soybean (soybean (Glycine max); [15]): 20 | Plant response rating, Soybean (soybean (Glycine max); [16]): 25 | Plant response rating, Soybean (soybean (Glycine max); [18]): 0 | Plant response rating, Soybean (soybean (Glycine max); [19]): 0 | Soybean plant response rating (soybean (Glycine max); [20]): 0 | Soybean plant response rating (soybean (Glycine max); [21]): 10 | Velvetleaf plant response rating [12, 14]: 35 | Plant response rating, Velvetleaf [12, 15]: 85 | Plant response rating, Velvetleaf [12, 16]: 90 | Plant response rating, Velvetleaf [12, 18]: 90 | Plant response rating, Velvetleaf [12, 19]: 100 | Velvetleaf plant response rating [12, 20]: 100 | Velvetleaf plant response rating [12, 21]: 80 | Wheat plant response rating [13, 14]: 5 | Plant response rating, Wheat [13, 15]: 30 | Plant response rating, Wheat [13, 16]: 10 | Plant response rating, Wheat [13, 18]: 5 | Plant response rating, Wheat [13, 19]: 45 | Wheat plant response rating [13, 20]: 50 | Wheat plant response rating [13, 21]: 5
